# Test results as given in ChEMBL document CHEMBL5550190 (J Med Chem, 2024).
# Tests used:
# [1] = system: Hs-578T; assay: Antitumor activity against human Hs-578T cells incubated for 48 hrs; assay type: functional
# [2] = system: BMDM; assay: Growth inhibition of mouse BMDMs; assay type: functional, cell-based
# [3] = molecular target: Cannabinoid receptor 2 (Homo sapiens, UniProt P34972); assay: Inhibition of CB2 (unknown origin); assay type: single protein
# [4] = system: MDA-MB-231; assay: Antitumor activity against human MDA-MB-231 cells incubated for 48 hrs by Celltiter Blue reagent based 2D microtiter assay; assay type: functional
# [5] = system: MDA-MB-231; assay: Antitumor activity against human MDA-MB-231 cells incubated for 48 hrs in presence of 1.5% BSA by Celltiter Blue reagent based 3D microtiter assay; assay type: functional
# [6] = system: MDA-MB-231; assay: Antitumor activity against human MDA-MB-231 cells incubated for 48 hrs by Celltiter Blue reagent based 3D microtiter assay; assay type: functional
# [7] = system: A549; assay: Antitumor activity against human A549 cells incubated for 48 hrs; assay type: functional
# [8] = system: MDA-MB-231; assay: Antitumor activity against human MDA-MB-231 cells incubated for 48 hrs in presence of 1.5% BSA by Celltiter Blue reagent based 2D microtiter assay; assay type: functional
# [9] = system: HCT-116; assay: Antitumor activity against human HCT-116 cells incubated for 48 hrs; assay type: functional
# [10] = Intrinsic clearance in human hepatocytes measured per million cells incubated for 120 mins by LC-MS/MS analysis; assay type: ADME, cell-based, Hepatocyte; conditions: read-out: CLH
# Cannabinoid receptor 2, sequence (P34972 whole entry): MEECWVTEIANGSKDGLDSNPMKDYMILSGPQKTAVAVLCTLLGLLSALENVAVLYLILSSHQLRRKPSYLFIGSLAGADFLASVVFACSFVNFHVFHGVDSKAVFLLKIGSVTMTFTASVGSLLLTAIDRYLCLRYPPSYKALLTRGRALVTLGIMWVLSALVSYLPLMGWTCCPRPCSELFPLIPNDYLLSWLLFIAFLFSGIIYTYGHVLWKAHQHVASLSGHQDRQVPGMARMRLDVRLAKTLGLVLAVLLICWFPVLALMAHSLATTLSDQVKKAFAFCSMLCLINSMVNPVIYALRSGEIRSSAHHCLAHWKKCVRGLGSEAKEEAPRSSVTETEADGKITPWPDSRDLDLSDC
structure (smiles),measurement,setting,value
[2H]C([2H])([2H])Oc1cc(C(=O)Nc2cc3c(cc2Oc2cc(C)cc(C)c2)C(=O)N[C@@H](CC(=O)N(OC([2H])([2H])[2H])C([2H])([2H])[2H])C(=O)N3)c(Br)c(OC([2H])([2H])[2H])c1OC([2H])([2H])[2H],GI50,[1],< 5 nM
same,IC50,[2],1420 nM
same,IC50,[3],4700 nM
same,GI50,[4],< 1 nM
same,GI50,[5],9.47 nM
same,GI50,[6],2.12 nM
same,GI50,[7],< 5 nM
same,GI50,[8],< 1 nM
same,GI50,[9],< 5 nM
same,hepatocyte CLint,[10],8.5 µL/min/1e6 cells
